What was measured:
Format in all cases: biochemical
c-Met = molecular target: T1, c-Met (Homo sapiens, UniProt P08581); test: Kinase inhibition assay (33P transfer), c-Met; details: Table 2, kinase inhibition class; read-out: Met-1
T1 construct: Kinases are expressed as either kinase domains or full length constructs; made in house
How it was run: (§1)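 Using immobilised substrate copolymers (poly(Glu,Tyr) 4:1; poly(Arg,Ser) 3:1) and [33P]ATP, purified fusion kinases were allowed to react; plates were then rinsed in 0.5% phosphoric acid and counted in a scintillation detector. Half-maximal inhibition of label transfer defines IC50.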

Lyn = molecular target: T2, Lyn (Homo sapiens, UniProt P07948); test: Kinase inhibition assay (33P transfer), Lyn; details: Table 6, Lyn-1 kinase inhibition class
T2 construct: Kinases are expressed as either kinase domains or full length constructs; made in house
T2 sequence (P07948 whole entry, species assumed, the tested form may be a part): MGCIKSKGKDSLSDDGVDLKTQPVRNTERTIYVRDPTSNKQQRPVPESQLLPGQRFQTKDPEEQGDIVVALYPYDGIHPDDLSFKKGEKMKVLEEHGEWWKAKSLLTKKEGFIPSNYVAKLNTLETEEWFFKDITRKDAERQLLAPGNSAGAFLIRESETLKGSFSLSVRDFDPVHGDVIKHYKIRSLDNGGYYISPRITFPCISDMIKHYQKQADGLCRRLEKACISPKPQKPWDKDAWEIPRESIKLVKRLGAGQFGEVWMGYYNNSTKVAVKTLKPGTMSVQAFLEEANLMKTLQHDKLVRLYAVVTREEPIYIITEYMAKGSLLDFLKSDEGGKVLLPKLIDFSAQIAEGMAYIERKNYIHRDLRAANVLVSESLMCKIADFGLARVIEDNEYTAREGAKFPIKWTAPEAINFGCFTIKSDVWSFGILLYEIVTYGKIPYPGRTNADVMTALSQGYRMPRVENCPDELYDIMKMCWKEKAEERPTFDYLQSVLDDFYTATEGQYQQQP
How it was run: as §1

IGFR-1 = molecular target: T3, IGFR-1 (Homo sapiens, UniProt P08069); test: Kinase inhibition assay (33P transfer), IGFR-1; details: Table 2, kinase inhibition class
T3 construct: Kinases are expressed as either kinase domains or full length constructs; made in house
T3 sequence (P08069 31-1367): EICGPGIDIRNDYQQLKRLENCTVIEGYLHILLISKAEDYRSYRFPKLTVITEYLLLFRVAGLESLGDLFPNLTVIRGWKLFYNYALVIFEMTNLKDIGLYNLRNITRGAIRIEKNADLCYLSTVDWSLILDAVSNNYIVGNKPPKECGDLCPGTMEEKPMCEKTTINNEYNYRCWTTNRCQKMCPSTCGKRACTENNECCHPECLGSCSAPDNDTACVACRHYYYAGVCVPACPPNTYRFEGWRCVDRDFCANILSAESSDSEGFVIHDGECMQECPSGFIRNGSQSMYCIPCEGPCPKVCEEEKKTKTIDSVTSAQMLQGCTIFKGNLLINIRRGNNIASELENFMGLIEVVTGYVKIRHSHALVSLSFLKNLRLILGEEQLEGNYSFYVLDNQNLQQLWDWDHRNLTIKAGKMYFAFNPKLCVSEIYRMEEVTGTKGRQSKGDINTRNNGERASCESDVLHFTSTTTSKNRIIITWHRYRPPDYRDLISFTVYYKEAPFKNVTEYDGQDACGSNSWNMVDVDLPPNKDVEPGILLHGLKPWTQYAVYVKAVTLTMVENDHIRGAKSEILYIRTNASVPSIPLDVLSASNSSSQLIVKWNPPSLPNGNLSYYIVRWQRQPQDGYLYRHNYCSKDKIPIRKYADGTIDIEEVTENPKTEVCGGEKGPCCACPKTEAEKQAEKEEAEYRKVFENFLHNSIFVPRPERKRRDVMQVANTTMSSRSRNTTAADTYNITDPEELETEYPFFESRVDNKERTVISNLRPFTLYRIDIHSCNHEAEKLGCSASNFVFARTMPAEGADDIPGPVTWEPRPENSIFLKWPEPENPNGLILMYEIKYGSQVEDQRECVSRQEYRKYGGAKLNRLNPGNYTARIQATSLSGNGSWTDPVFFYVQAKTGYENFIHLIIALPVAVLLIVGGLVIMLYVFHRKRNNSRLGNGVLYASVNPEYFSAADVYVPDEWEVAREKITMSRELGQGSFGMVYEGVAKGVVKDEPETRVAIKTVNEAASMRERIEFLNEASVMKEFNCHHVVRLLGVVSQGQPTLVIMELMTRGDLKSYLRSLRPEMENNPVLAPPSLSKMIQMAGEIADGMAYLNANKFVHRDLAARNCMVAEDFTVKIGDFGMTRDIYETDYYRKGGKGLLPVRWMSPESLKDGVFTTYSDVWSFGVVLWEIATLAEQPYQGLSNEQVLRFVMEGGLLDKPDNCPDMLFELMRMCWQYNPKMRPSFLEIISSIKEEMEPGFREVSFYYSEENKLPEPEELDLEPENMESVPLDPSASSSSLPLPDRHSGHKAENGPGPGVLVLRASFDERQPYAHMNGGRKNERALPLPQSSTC

AKT = molecular target: T4, AKT (Homo sapiens, UniProt Q9Y243); test: Kinase inhibition assay (33P transfer), AKT; details: Table 2, kinase inhibition class; read-out: AKT3-1
T4 construct: Kinases are expressed as either kinase domains or full length constructs; made in house
T4 sequence (Q9Y243 whole entry, the tested form may be a part): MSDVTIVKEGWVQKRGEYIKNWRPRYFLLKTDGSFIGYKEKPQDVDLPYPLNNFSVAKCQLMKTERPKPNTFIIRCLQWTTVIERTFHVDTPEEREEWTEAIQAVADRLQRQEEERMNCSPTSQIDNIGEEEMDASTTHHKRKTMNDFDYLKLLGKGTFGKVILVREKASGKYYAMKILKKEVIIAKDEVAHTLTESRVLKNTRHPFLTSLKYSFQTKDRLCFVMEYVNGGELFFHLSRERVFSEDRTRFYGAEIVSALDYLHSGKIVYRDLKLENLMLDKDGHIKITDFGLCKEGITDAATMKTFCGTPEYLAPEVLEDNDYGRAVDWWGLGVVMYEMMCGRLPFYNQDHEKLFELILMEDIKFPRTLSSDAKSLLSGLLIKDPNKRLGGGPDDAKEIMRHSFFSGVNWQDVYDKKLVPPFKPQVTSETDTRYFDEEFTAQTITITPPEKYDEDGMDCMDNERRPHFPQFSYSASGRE
How it was run: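 Steps: express kinase as GST or polyHistidine fusion in E. coli or High Five cells; optionally co-express or mix with regulatory polypeptides; incubate with 33P-ATP and plate-attached poly(Glu,Tyr) 4:1 or poly(Arg,Ser) 3:1; wash with 0.5% phosphoric acid; count by liquid scintillation.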

Ret-1 = molecular target: T5, Ret-1 (Homo sapiens, UniProt P07949); test: Kinase inhibition assay (33P transfer), Ret; details: Table 6, Ret-1 kinase inhibition class
T5 construct: Kinases are expressed as either kinase domains or full length constructs; made in house
T5 sequence (P07949 29-1114): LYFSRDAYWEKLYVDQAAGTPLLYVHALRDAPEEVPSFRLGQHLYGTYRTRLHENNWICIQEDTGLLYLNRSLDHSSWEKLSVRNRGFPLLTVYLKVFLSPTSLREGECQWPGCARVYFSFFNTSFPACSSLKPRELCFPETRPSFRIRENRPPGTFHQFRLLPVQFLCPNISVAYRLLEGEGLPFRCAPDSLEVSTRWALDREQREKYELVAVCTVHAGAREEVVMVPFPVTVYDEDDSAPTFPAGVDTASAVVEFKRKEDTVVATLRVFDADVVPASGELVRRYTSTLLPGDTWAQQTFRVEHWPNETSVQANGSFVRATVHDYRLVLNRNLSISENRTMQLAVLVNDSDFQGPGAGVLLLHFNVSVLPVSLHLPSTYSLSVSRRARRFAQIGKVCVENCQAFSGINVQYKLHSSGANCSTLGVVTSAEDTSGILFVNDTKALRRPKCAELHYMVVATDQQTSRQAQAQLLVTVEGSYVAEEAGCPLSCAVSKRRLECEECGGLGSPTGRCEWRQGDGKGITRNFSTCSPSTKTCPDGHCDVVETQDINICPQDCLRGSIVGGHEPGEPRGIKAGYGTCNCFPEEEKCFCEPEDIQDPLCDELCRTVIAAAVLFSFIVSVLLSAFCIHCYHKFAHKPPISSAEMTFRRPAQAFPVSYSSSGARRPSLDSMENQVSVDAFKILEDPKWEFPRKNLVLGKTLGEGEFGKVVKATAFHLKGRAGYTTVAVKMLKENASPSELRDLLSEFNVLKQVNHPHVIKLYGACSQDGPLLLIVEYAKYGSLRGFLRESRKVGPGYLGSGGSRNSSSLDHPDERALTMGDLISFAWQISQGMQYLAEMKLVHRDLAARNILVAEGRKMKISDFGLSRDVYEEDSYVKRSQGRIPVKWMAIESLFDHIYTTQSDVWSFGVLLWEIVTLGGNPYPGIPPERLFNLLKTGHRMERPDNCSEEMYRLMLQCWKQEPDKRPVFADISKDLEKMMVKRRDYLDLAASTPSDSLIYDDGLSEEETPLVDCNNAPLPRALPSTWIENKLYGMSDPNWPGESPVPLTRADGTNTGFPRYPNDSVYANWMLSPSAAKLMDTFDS

EPHB4 = molecular target: T6, EPHB4 (Homo sapiens, UniProt P54760); test: Kinase inhibition assay (33P transfer), EPHB4; details: read-out: EPHB4-1
T6 construct: Kinases are expressed as either kinase domains or full length constructs; made in house
T6 sequence (P54760 16-987): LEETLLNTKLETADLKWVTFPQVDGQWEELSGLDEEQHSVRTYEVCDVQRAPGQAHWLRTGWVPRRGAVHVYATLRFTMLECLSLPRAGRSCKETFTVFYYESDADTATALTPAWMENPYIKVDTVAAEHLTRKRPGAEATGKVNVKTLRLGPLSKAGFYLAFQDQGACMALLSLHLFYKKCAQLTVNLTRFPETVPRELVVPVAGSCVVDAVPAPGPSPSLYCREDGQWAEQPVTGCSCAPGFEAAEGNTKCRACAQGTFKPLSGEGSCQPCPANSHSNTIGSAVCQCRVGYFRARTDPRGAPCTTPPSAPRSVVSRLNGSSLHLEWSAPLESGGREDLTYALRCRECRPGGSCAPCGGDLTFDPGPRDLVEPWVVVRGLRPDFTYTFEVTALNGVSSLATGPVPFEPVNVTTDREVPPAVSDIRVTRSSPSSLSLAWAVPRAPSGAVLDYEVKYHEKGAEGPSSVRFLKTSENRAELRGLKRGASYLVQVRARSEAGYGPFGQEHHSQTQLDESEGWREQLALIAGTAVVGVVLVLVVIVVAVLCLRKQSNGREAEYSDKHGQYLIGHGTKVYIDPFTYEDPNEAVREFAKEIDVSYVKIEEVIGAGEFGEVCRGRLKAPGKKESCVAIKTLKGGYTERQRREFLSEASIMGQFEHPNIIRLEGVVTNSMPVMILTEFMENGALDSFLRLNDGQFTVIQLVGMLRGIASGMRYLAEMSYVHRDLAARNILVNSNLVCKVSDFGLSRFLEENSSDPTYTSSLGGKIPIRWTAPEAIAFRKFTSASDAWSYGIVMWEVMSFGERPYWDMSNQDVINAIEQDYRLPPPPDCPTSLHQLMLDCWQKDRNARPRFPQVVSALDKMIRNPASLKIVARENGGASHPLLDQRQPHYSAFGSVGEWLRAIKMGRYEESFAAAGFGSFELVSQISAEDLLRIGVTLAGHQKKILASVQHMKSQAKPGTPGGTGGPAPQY

ErbB4 = molecular target: T7, ErbB4 (Homo sapiens, UniProt Q15303); test: Kinase inhibition assay (33P transfer), ErbB4; details: read-out: ErbB4-1
T7 construct: Kinases are expressed as either kinase domains or full length constructs; made in house

ErbB2 = molecular target: T8, ErbB2 (Homo sapiens, UniProt P04626); test: Kinase inhibition assay (33P transfer), ErbB2; details: read-out: ErbB2-2
T8 construct: Kinases are expressed as either kinase domains or full length constructs; made in house
How it was run: as §1

T1 sequence (P08581 25-1390): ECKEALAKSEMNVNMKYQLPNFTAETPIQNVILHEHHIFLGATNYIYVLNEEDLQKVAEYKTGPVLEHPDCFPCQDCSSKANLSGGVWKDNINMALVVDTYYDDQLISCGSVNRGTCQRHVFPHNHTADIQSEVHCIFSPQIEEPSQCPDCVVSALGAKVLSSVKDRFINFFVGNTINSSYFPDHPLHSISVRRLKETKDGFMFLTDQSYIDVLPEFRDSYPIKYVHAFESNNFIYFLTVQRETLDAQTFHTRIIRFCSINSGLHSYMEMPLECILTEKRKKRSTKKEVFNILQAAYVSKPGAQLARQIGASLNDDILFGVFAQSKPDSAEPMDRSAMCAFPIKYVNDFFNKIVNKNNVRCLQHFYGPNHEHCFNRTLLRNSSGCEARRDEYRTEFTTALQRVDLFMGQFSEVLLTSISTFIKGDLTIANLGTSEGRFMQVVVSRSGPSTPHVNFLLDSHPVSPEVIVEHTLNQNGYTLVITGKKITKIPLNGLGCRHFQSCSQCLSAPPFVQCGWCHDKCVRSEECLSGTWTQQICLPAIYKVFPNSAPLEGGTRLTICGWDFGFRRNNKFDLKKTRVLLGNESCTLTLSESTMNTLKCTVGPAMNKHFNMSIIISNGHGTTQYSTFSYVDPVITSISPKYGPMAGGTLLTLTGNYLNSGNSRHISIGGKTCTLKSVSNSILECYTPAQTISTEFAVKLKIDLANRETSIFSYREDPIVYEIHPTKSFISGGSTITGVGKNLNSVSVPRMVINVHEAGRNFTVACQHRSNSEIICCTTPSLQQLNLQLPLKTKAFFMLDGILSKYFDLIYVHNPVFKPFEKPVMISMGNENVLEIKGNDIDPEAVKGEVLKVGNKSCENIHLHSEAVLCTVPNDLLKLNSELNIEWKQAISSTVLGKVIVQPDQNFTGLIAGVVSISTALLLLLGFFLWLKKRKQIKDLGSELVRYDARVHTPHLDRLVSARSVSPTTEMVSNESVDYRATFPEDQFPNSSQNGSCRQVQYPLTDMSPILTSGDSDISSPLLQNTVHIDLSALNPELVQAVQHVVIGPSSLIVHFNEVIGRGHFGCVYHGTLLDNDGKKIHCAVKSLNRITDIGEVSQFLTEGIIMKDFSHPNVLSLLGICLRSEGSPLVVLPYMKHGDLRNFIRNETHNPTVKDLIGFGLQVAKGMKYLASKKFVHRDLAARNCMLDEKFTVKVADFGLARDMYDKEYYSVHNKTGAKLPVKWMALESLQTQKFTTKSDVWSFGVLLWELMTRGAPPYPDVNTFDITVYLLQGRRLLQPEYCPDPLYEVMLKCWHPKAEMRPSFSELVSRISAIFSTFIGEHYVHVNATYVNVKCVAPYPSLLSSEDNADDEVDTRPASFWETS

An IC50 (c-Met) of 8.83 to 11.4 µM, an IC50 (Lyn) of 1.01 to 6.05 µM and an IC50 (IGFR-1) of less than 1.01 µM were found for COc1cc(Nc2ncnc(Nc3ccc(N(C)C)cc3)n2)cc(OC)c1OC [Compound 27] in this work. The IC50 (AKT) was greater than 11.4 µM, the IC50 (Ret-1) was 1.01 to 6.05 µM and the IC50 (EPHB4) was greater than 11.4 µM.

An IC50 (c-Met) greater than 11.4 µM, an IC50 (Lyn) of 1.01 to 6.05 µM and an IC50 (IGFR-1) of less than 1.01 µM were found for COc1cc(Nc2ncnc(Nc3ccc(C(N)=O)cc3)n2)cc(OC)c1OC [Compound 33] in this work. The IC50 (AKT) was greater than 11.4 µM, the IC50 (Ret-1) was greater than 11.4 µM and the IC50 (EPHB4) was greater than 11.4 µM.

An IC50 (c-Met) of 1.01 to 6.07 µM, an IC50 (Lyn) of 1.01 to 6.07 µM and an IC50 (IGFR-1) of less than 1.01 µM were found for COc1cc(Nc2ncnc(Nc3ccc(C(C)C)cc3)n2)cc(OC)c1OC [Compound 66] in this work. It also gave an IC50 (AKT) greater than 11.4 µM, an IC50 (Ret-1) greater than 11.4 µM and an IC50 (EPHB4) of 8.85 to 11.4 µM.

An IC50 (c-Met) of 9.27 to 11.9 µM, an IC50 (Lyn) of less than 1.06 µM and an IC50 (IGFR-1) of less than 1.06 µM were found for C#Cc1cccc(Nc2ncnc(Nc3cc(OC)c(OC)c(OC)c3)n2)c1 [Compound 74] in this work. For the same compound, the IC50 (ErbB4) was greater than 11.9 µM, the IC50 (AKT) was greater than 11.9 µM and the IC50 (EPHB4) was less than 1.06 µM.

An IC50 (c-Met) greater than 10.1 µM, an IC50 (Lyn) of 0.902 to 5.41 µM and an IC50 (IGFR-1) of 0.902 to 5.41 µM were found for COc1cc(Nc2ncnc(Nc3cc(OC)c(OC)c(OC)c3)n2)cc(OC)c1OC [Compound 76] in this work. The IC50 (AKT) was greater than 10.1 µM and the IC50 (EPHB4) was 0.902 to 5.41 µM.

An IC50 (c-Met) greater than 10.4 µM, an IC50 (IGFR-1) of 0.925 to 5.55 µM and an IC50 (AKT) greater than 10.4 µM were found for COc1cc(Nc2ncnc(Nc3ccc(Br)cc3)n2)cc(OC)c1OC [Compound 82] in this work. The IC50 (Ret-1) was 0.925 to 5.55 µM and the IC50 (EPHB4) was 0.925 to 5.55 µM.

An IC50 (c-Met) of 1.12 to 6.72 µM, an IC50 (Lyn) of 1.12 to 6.72 µM and an IC50 (IGFR-1) of 1.12 to 6.72 µM were found for COc1cc(Nc2ncnc(Nc3cc(C)[nH]n3)n2)cc(OC)c1OC [Compound 88] in this work. It also gave an IC50 (AKT) greater than 12.6 µM and an IC50 (EPHB4) of 1.12 to 6.72 µM.

An IC50 (c-Met) greater than 10.2 µM, an IC50 (Lyn) of 5.44 to 7.93 µM and an IC50 (IGFR-1) of 0.906 to 5.44 µM were found for COc1cc(Nc2ncnc(Nc3ccc4c(c3)Cc3ccccc3-4)n2)cc(OC)c1OC [Compound 95] in this work. The IC50 (AKT) was greater than 10.2 µM and the IC50 (EPHB4) was 7.93 to 10.2 µM.

An IC50 (c-Met) of 8.65 to 11.1 µM, an IC50 (Lyn) of 8.65 to 11.1 µM and an IC50 (AKT) greater than 11.1 µM were found for COc1cc(Nc2ncnc(Nc3cnc4ccccc4c3)n2)cc(OC)c1OC [Compound 99] in this work. It also gave an IC50 (Ret-1) of 0.989 to 5.93 µM and an IC50 (EPHB4) of less than 0.989 µM.

An IC50 (c-Met) greater than 10.3 µM, an IC50 (Lyn) of 5.47 to 7.98 µM and an IC50 (IGFR-1) greater than 10.3 µM were found for COc1cc(Nc2ncnc(Nc3ccc(N4CCOCC4)cc3)n2)cc(OC)c1OC [Compound 101] in this work. The IC50 (AKT) was greater than 10.3 µM and the IC50 (EPHB4) was greater than 10.3 µM.

An IC50 (c-Met) greater than 10.9 µM, an IC50 (Lyn) of 0.97 to 5.82 µM and an IC50 (IGFR-1) greater than 10.9 µM were found for COc1cc(Nc2ncnc(-c3ccnc(NCCCO)c3)n2)cc(OC)c1OC [Compound 180] in this work. The IC50 (ErbB4) was greater than 10.9 µM, the IC50 (AKT) was greater than 10.9 µM and the IC50 (EPHB4) was greater than 10.9 µM.

An IC50 (c-Met) greater than 12.2 µM, an IC50 (Lyn) greater than 12.2 µM and an IC50 (IGFR-1) greater than 12.2 µM were found for COc1cccc(-c2ncnc(Nc3cc(OC)c(OC)c(OC)c3)n2)c1 [Compound 232] in this work. The IC50 (AKT) was greater than 12.2 µM and the IC50 (EPHB4) was greater than 12.2 µM.

An IC50 (c-Met) of less than 1.05 µM, an IC50 (Lyn) of less than 1.05 µM and an IC50 (IGFR-1) of less than 1.05 µM were found for COc1cc(Nc2ncnc(Nc3cc(-c4ccco4)n[nH]3)n2)cc(OC)c1 [Compound 365] in this work. It also gave an IC50 (ErbB4) of 6.33 to 9.23 µM, an IC50 (AKT) of 6.33 to 9.23 µM and an IC50 (EPHB4) of 1.05 to 6.33 µM.

An IC50 (c-Met) of less than 0.881 µM, an IC50 (Lyn) of 0.881 to 5.29 µM and an IC50 (IGFR-1) of less than 0.881 µM were found for COc1cc(Nc2ncnc(Nc3cc(-c4ccc(Cl)cc4)n[nH]3)n2)cc(OC)c1OC [Compound 367] in this work. For the same compound, the IC50 (ErbB4) was greater than 9.91 µM, the IC50 (AKT) was greater than 9.91 µM and the IC50 (EPHB4) was 0.881 to 5.29 µM.

An IC50 (ErbB2) greater than 9.31 µM, an IC50 (c-Met) greater than 9.31 µM and an IC50 (Lyn) of less than 0.827 µM were found for COc1cc(Nc2ncnc(-n3c(NCc4ccccc4)nc4ccccc43)n2)cc(OC)c1OC [Compound 371] in this work. For the same compound, the IC50 (IGFR-1) was greater than 9.31 µM, the IC50 (ErbB4) was greater than 9.31 µM and the IC50 (AKT) was greater than 9.31 µM. For the same compound, the IC50 (EPHB4) was less than 0.827 µM.

Reference: patent US7074789B2, “Kinase inhibitors” (Amgen Inc., priority 1999, dated 2006)
